These results are taken from patent US20250320496A1, “MODULATION OF ABCB11 GENE TRANSCRIPTION USING ANTISENSE OLIGONUCLEOTIDES TARGETING REGULATORY RNAS” (CAMP4 Therapeutics Corporation, priority 2022, published 2025).

Strand notation (5' to 3'): a small letter for the sugar, then the base; units joined by * are phosphorothioate-linked, units joined directly phosphodiester-linked; [ ] holds rarer units or linkages, { } end groups; capitals alone tell only the bases. e = 2'-O-(2-methoxyethyl) (MOE); l = locked nucleic acid (LNA); [5mC] = 5-methylcytosine; d = 2'-deoxy (DNA)

For this data set, the system named is human ABCB11 mRNA. As to the kind of experiment: ASO treatment of primary human hepatocytes (PHH), ABCB11 mRNA by RT-qPCR normalized to B2M. It is filed as cell-based. The note with it: primary human hepatocytes; for ABCB11 FC mRNA (5 μM ASO vs. untreated): 5 μM ASO with PO-modifications, normalized to untreated hepatocytes; for ABCB11 mRNA FC (5 μM ASO vs. UNT): normalized to untreated PHHs (UNT). Summed up: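 Plated primary human hepatocytes were treated 4 h post-thaw with ASO (e.g., 1.25–10 μM; initial screen 5 μM) in medium containing 0.3 mg/ml Matrigel for 72 hrs. Total RNA was reverse-transcribed and ABCB11 mRNA measured by Taqman RT-qPCR, normalized to B2M, with fold change versus untreated PHHs.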

As for “CO-11205 (antisense eT*eGeT*eT*eT*eTeG*e[5mC]*eT*eTeG*eG*eT*e[5mC]eA*eA*eG*eAeG*eG)”, the “ABCB11 FC mRNA (5 μM ASO vs. untreated)” value came to 1.11 fold change.
“CO-7166: derivative ASO with additional chemical modifications based on parent ASO CO-4535 (antisense eG*eT*eT*eA*eT*eT*eA*eA*eT*eT*e[5mC]*eT*eA*e[5mC]*eA*eG*eA*eG*eG*eG)”: the “ABCB11 mRNA FC (5 μM ASO vs. UNT)” value was found to be 1.517 fold change.
Still for that read-out and setting: the figure for “CO-7177 (antisense eG*eT*eG*eG*lA*dG*d[5mC]*dA*lA*dA*d[5mC]*dT*lA*dG*dG*e[5mC]*lA*e[5mC]*eT*eG)” is 1.455 fold change; for “CO-7031 (antisense eA*eA*eA*eG*eA*eA*eT*e[5mC]*eG*e[5mC]*eT*eG*eT*eG*eG*e[5mC]*eA*eG*eT*eT)” it is 1.212 fold change; for “CO-7178: derivative ASO with additional chemical modifications based on parent ASO CO-4529 (antisense eG*eT*eG*lG*eA*lG*e[5mC]*lA*eA*lA*e[5mC]*lT*eA*lG*eG*l[5mC]*eA*l[5mC]*eT*eG)” it is 1.737 fold change.
As for “CO-11237 (antisense eG*eTeGeGlAeGe[5mC]*eA*eA*lA*e[5mC]*eT*eA*eGlGe[5mC]eAe[5mC]eT*eG)”, the “ABCB11 FC mRNA (5 μM ASO vs. untreated)” value came out at 1.56 fold change.
Still for that read-out and setting: the figure for “CO-11238 (antisense eG*eT*eGeG*lA*eG*e[5mC]*eAeA*lA*e[5mC]*eT*eAeG*lG*e[5mC]*eA*e[5mC]eT*eG)” is 1.26 fold change.
“CO-7059 (eT*e[5mC]*eT*lG*eG*dA*dA*lA*dA*dT*dA*lA*dT*dG*d[5mC]*l[5mC]*eT*eT*eT*e[5mC]; antisense)”: the “ABCB11 mRNA FC (5 μM ASO vs. UNT)” value is 1.023 fold change.
Take “CO-7149: derivative ASO with additional chemical modifications based on parent ASO CO-4517 (antisense e[5mC]*e[5mC]*eT*eT*eA*eG*eG*eA*eG*eG*eA*eT*eT*eA*eT*eT*eT*eA*eA*e[5mC]*e[5mC]*eT)”: the “ABCB11 mRNA FC (5 μM ASO vs. UNT)” value is on record as 1.719 fold change.
The same measure, in the same setting: the figure for “CO-7152 (antisense eA*e[5mC]*e[5mC]*eT*eT*eA*eG*dG*dA*dG*dG*dA*dT*dT*dA*dT*dT*eT*eA*eA*e[5mC]*e[5mC]*eT*e[5mC])” is 1.28 fold change; for “CO-7061 (eT*e[5mC]*eT*lG*eG*lA*eA*lA*eA*lT*eA*lA*eT*lG*e[5mC]*l[5mC]*eT*lT*eT*e[5mC]; antisense)” it is 1.261 fold change.
Take “CO-7067 (eT*e[5mC]*eT*eG*lG*eA*eA*eA*eA*lT*eA*eA*eT*eG*l[5mC]*e[5mC]*eT*eT*eT*e[5mC]; antisense)”: the “ABCB11 mRNA FC (5 μM ASO vs. UNT)” value amounted to 1.081 fold change.
With “CO-11228 (antisense eG*eT*lG*eG*eAlG*e[5mC]*eA*lAeA*e[5mC]*lT*eAeG*lG*e[5mC]*eAl[5mC]*eT*eG)”, the “ABCB11 FC mRNA (5 μM ASO vs. untreated)” value was 1.99 fold change.
In the case of “CO-4511 (antisense eG*eT*eG*eG*eG*eA*eG*eT*eG*eG*eT*eA*eA*eG*eA*eT*eT*eA*eG*e[5mC])”, the “ABCB11 mRNA FC (5 μM ASO vs. UNT)” value was found to be 1.182 fold change.
Take “CO-4026 (antisense e[5mC]*eT*eT*eG*eT*e[5mC]*e[5mC]*eA*eG*eT*eG*eT*eA*eA*eA*e[5mC]*eA*eA*e[5mC]*eG)”: the “ABCB11 mRNA FC (5 μM ASO vs. UNT)” value was found to be 1.234 fold change.
On to “CO-4519 (antisense eA*eG*eA*e[5mC]*eT*eG*eG*e[5mC]*eA*eT*eGeT*eG*eG*e[5mC]*eT*eT*e[5mC]*eA*e[5mC])”, for which the “ABCB11 mRNA FC (5 μM ASO vs. UNT)” value came to 1.061 fold change.
Same read-out and setting: the figure for “CO-4061 (antisense eA*eT*eT*e[5mC]*eA*eT*eT*eG*e[5mC]*eT*eG*eA*eA*eG*eG*e[5mC]*eT*eG*eG*eA)” is 1.233 fold change; for “CO-4049 (antisense eG*eT*e[5mC]*eT*e[5mC]*e[5mC]*eA*e[5mC]*eA*eA*eA*eA*e[5mC]*eT*e[5mC]*eT*eA*eT*eA*eG)” it is 0.889 fold change.
“CO-4029 (antisense eA*eT*eA*e[5mC]*eT*eT*eG*eT*e[5mC]*eT*e[5mC]*eT*eG*e[5mC]eA*eA*eA*eT*e[5mC]*e[5mC])”: the “ABCB11 mRNA FC (5 μM ASO vs. UNT)” value worked out at 0.908 fold change.
Same read-out and setting: the figure for “CO-4043 (antisense eG*e[5mC]*e[5mC]*e[5mC]*eA*e[5mC]*eT*e[5mC]*eT*eG*e[5mC]*eT*e[5mC]*eA*eA*eT*eT*eT*eG*e[5mC])” is 1.934 fold change; for “CO-4060 (antisense eG*eG*eA*eGeT*eGeA*eGeA*eG*eG*e[5mC]*eA*eT*eT*eT*eA*eG*eG*eG)” it is 1.117 fold change.
Turning to “CO-7054 (antisense eA*e[5mC]*e[5mC]*e[5mC]*e[5mC]*d[5mC]*d[5mC]*dT*d[5mC]*dA*d[5mC]*d[5mC]*dT*dT*dG*eG*eT*eT*e[5mC]*e[5mC])”, the “ABCB11 mRNA FC (5 μM ASO vs. UNT)” value was found to be 1.323 fold change.
On the same count and under the same terms, the figure for “CO-7196 (eG*eG*eT*eG*eG*eA*eG*e[5mC]*eA*eA*eA*e[5mC]*eT*eA*eG*eG*e[5mC]*eA*e[5mC]*eT*eG*eA; antisense)” is 1.33 fold change.
In the case of “CO-11225 (antisense eG*eTlGeGeAlGe[5mC]*eA*lA*eA*e[5mC]*lT*eA*eGlGe[5mC]eAl[5mC]eT*eG)”, the “ABCB11 FC mRNA (5 μM ASO vs. untreated)” value was 1.66 fold change.
The same measure, in the same setting: the figure for “CO-11235 (antisense eG*eT*eG*eGlAeGe[5mC]*eA*eA*lA*e[5mC]*eT*eA*eGlGe[5mC]eA*e[5mC]*eT*eG)” is 1.47 fold change.
On to “CO-6990 (antisense eT*eG*lG*eA*eT*lG*eT*eA*lG*eA*eT*lG*eA*eA*lT*eG*eG*l[5mC]*eA*eA)”, for which the “ABCB11 mRNA FC (5 μM ASO vs. UNT)” value is recorded as 1.16 fold change.
On to “CO-4502 (antisense eA*eA*eA*eT*eGeT*eT*eG*eG*e[5mC]*e[5mC]e[5mC]*eT*eT*eG*eA*eG*eG*eA*eG)”, for which the “ABCB11 mRNA FC (5 μM ASO vs. UNT)” value was found to be 1.142 fold change.
On the same count and under the same terms, to “CO-7048 (antisense eT*eG*eG*eA*eG*eT*eT*eG*eT*eG*eT*eT*eT*eT*eG*e[5mC]*eT*eT*eG*eG)” belongs 1.175 fold change.
For the substance “CO-11200 (antisense eT*eG*eTeTeTeTeG*e[5mC]*eT*eT*eG*eG*eT*e[5mC]eAeAeGeA*eG*eG)”, the “ABCB11 FC mRNA (5 μM ASO vs. untreated)” value is 1.34 fold change.
Turning to “CO-7055 (antisense eT*e[5mC]*eA*e[5mC]*e[5mC]*e[5mC]*e[5mC]*e[5mC]*e[5mC]eT*e[5mC]*eA*e[5mC]*e[5mC]*eT*eT*eG*eG*eT*eT)”, the “ABCB11 mRNA FC (5 μM ASO vs. UNT)” value was determined as 1.498 fold change.
Same read-out and setting: to “CO-4023 (antisense e[5mC]*eA*e[5mC]*eA*eA*e[5mC]*eA*eT*eT*eG*eT*eA*eT*eA*e[5mC]*eA*eA*eT*eA*e[5mC])” belongs 1.092 fold change; to “CO-7016 (antisense eA*eG*eT*eG*eA*lG*dG*d[5mC]*lA*dT*d[5mC]*dA*dG*lG*dT*dA*lA*eG*eT*eT*e[5mC]*e[5mC])”, 1.278 fold change.
On the same count and under the same terms, to “CO-7051 (antisense eA*e[5mC]*e[5mC]*eT*eT*eG*eG*eT*eT*e[5mC]*e[5mC]*e[5mC]*e[5mC]*e[5mC]*eT*eG*e[5mC]*eT*eG*eT)” belongs 1.201 fold change; to “CO-7184: derivative ASO with additional chemical modifications based on parent ASO CO-4529 (antisense eG*eT*eG*eG*lA*eG*e[5mC]*eA*eA*lA*e[5mC]*eT*eA*eG*lG*e[5mC]*eA*e[5mC]*eT*eG)”, 1.582 fold change.
Take “CO-7148: derivative ASO with additional chemical modifications based on parent ASO CO-4517 (antisense e[5mC]*e[5mC]*eT*eT*eA*eG*dG*dA*dG*dG*dA*dT*dT*dA*dT*dT*eT*eA*eA*e[5mC]*e[5mC]*eT)”: the “ABCB11 mRNA FC (5 μM ASO vs. UNT)” value is 1.527 fold change.
Consider “CO-4031 (antisense eG*eG*e[5mC]*eT*eT*e[5mC]*e[5mC]*eT*e[5mC]*eA*eA*eA*eT*eT*e[5mC]*eA*eT*eA*eT*eT)”, for which the “ABCB11 mRNA FC (5 μM ASO vs. UNT)” value is recorded as 1.427 fold change.
The same measure, in the same setting: the figure for “CO-7113 (TACATTTAGAGACAAAGAATCGCT; MOE/LNA gapmer, PS/PO backbone, 5-methylcytosine; listed as DNA; modified_base 1..24: mod_base = OTHER; note = Phosphorothioate linkage; modified_base 1..5: mod_base = OTHER; note = 2'-O-(2-methoxyethyl) ribonucleotide; misc_feature 1..5: note = RNA; misc_feature 6..7: note = DNA; misc_feature 8: note = RNA)” is 1.179 fold change.
“CO-7171 (antisense eA*eG*eT*e[5mC]*eT*eT*eA*eT*eT*eT*eG*eG*e[5mC]*eG*eT*eT*eA*eT*eT*eA)”: the “ABCB11 mRNA FC (5 μM ASO vs. UNT)” value amounted to 1.46 fold change.
On to “CO-7056 (antisense eT*eG*e[5mC]*eT*e[5mC]*eA*e[5mC]*e[5mC]*e[5mC]*e[5mC]*e[5mC]*e[5mC]*eT*e[5mC]*eA*e[5mC]*e[5mC]*eT*eT*eG)”, for which the “ABCB11 mRNA FC (5 μM ASO vs. UNT)” value is recorded as 1.491 fold change.
For the substance “CO-7026 (antisense eA*e[5mC]*eA*eG*eT*eG*eA*eG*e[5mC]*eT*eT*eA*eT*e[5mC]*eT*eG*eG*eA*eA*eA)”, the “ABCB11 mRNA FC (5 μM ASO vs. UNT)” value is reported as 1.158 fold change.
Same read-out and setting: the figure for “CO-4056 (antisense eG*e[5mC]*eT*eT*eA*eT*eT*eT*eG*eA*e[5mC]*eT*e[5mC]*eA*eA*eG*eA*e[5mC]*e[5mC]*eT)” is 1.115 fold change.
